Values quoted from earlier work, collected in US12171169B2, “Pest repelling drip irrigation pipe” (RIVULIS PLASTRO LTD., priority 2017, dated 2024).

Columns and labels:
[1] = system: pests; conditions: 1R-cis versus 1S-cis enantiomer
[2] = system: humans; conditions: 1S-cis versus 1R-cis enantiomer

| Compound | effectiveness as a pesticide relative to 1S-cis-bifenthrin [1] | toxicity to humans relative to 1R-cis-bifenthrin [2] |
| --- | --- | --- |
| Cc1c(COC(=O)[C@@H]2[C@H](/C=C(\Cl)C(F)(F)F)C2(C)C)cccc1-c1ccccc1 [1R-cis-bifenthrin, (2-methyl-[1,1′-biphenyl]-3-yl)methyl (1R,3R)-3-((Z)-2-chloro-3,3,3-trifluoroprop-1-en-1-yl)-2,2-dimethylcyclopropane-1-carboxylate] | more than 300 times |  |
| Cc1c(COC(=O)[C@H]2[C@@H](/C=C(\Cl)C(F)(F)F)C2(C)C)cccc1-c1ccccc1 [1S-cis-Bifenthrin, (2-methyl-[1,1′-biphenyl]-3-yl)methyl (1S,3S)-3-((Z)-2-chloro-3,3,3-trifluoroprop-1-en-1-yl)-2,2-dimethylcyclopropane-1-carboxylate] |  | 3-4 times |
